In ChEMBL document CHEMBL1150976, “The selectivity of protein kinase inhibitors: a further update” (Biochem J, 2007):

How the values were obtained:
[1] = target: T1, Myosin light chain kinase, smooth muscle (Homo sapiens, UniProt Q15746); assay: Percentage SmMLCK activity remaining in the presence of 0.01uM inhibitor
Rattus norvegicus = organism: Rattus norvegicus; assay: Percentage AMPK activity remaining in the presence of 25uM inhibitor
[2] = target: Calcium/calmodulin-dependent protein kinase type 1 (Homo sapiens) (UniProt Q14012); assay: Percentage CaMK1 activity remaining in the presence of 25uM inhibitor
Calcium/calmodulin-dependent protein kinase type 1 (Homo sapiens), sequence (Q14012 whole entry, looked up): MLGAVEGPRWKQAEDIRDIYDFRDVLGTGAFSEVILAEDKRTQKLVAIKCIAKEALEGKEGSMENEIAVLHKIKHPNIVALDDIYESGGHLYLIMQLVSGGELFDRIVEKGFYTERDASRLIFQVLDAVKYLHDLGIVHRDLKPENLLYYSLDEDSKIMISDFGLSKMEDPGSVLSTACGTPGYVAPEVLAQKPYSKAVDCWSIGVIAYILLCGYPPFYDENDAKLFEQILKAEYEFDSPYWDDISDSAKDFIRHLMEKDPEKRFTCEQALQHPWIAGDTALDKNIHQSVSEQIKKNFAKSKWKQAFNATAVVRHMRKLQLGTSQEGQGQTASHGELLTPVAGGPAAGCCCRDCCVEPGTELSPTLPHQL

[3] = target: Calcium/calmodulin-dependent protein kinase kinase 1 (Homo sapiens) (UniProt Q8N5S9); assay: Percentage CaMKKalpha activity remaining in the presence of 25uM inhibitor
Calcium/calmodulin-dependent protein kinase kinase 1 (Homo sapiens), sequence (Q8N5S9 whole entry, looked up): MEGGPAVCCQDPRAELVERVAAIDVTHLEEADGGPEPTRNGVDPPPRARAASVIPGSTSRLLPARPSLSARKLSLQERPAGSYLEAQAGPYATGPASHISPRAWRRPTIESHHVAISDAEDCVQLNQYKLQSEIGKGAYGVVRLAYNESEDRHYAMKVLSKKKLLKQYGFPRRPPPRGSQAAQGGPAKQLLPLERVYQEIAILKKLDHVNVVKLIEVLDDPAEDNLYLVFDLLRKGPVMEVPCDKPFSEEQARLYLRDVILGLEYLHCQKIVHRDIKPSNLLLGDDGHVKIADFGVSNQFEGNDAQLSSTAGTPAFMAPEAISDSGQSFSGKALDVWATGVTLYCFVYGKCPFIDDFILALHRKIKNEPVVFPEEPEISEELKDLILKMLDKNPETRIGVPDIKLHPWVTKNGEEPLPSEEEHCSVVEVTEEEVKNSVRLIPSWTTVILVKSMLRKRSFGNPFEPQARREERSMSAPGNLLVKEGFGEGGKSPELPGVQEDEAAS

[4] = target: T2, Mitogen-activated protein kinase 13 (Homo sapiens) (UniProt O15264); assay: Percentage p38delta activity remaining in the presence of 25uM inhibitor
T2 sequence (whole entry): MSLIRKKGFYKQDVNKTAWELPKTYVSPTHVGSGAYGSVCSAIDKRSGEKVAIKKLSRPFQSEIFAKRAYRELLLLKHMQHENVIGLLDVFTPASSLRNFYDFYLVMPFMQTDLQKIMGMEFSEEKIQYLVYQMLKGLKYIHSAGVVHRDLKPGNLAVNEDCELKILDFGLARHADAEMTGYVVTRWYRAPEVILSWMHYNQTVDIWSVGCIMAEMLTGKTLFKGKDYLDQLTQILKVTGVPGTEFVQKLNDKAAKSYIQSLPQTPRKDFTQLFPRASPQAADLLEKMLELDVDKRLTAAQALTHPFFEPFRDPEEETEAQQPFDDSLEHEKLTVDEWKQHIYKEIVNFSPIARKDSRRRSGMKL

[5] = target: Ribosomal protein S6 kinase alpha-1 (Homo sapiens) (UniProt Q15418); assay: Percentage RSK1 activity remaining in the presence of 25uM inhibitor
[6] = target: Proto-oncogene tyrosine-protein kinase LCK (Mus musculus) (UniProt P06240); assay: Percentage Lck activity remaining in the presence of 25uM inhibitor
Proto-oncogene tyrosine-protein kinase LCK (Mus musculus), sequence (P06240 2-509 limits assumed): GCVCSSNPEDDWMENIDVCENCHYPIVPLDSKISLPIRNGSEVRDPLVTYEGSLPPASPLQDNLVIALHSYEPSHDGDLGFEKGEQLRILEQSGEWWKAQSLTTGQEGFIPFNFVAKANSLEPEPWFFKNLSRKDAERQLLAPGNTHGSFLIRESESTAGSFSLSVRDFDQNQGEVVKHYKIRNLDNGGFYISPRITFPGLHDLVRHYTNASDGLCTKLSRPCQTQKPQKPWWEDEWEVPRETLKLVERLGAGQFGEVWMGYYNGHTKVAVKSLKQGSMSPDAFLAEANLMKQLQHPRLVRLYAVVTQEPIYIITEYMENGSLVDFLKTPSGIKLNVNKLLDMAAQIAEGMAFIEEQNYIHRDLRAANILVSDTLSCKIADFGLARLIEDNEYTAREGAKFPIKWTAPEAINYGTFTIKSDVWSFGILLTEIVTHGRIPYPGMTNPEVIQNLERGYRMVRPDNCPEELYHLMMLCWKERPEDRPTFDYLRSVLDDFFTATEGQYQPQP

[7] = target: MAP kinase-interacting serine/threonine-protein kinase 2 (Homo sapiens) (UniProt Q9HBH9); assay: Percentage MNK2 activity remaining in the presence of 25uM inhibitor
MAP kinase-interacting serine/threonine-protein kinase 2 (Homo sapiens), sequence (Q9HBH9 whole entry, looked up): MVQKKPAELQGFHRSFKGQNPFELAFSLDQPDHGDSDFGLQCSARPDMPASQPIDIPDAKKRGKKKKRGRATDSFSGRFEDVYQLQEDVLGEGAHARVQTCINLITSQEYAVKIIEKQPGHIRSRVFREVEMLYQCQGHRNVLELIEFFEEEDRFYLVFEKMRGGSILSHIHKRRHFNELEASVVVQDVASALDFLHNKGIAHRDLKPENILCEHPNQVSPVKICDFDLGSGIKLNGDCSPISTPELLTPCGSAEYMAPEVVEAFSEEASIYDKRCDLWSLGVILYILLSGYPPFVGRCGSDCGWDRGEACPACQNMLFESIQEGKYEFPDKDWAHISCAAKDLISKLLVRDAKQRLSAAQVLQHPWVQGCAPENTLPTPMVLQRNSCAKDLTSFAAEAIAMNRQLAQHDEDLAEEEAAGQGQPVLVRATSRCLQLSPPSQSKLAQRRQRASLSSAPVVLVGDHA

[8] = target: T3, Serine/threonine-protein kinase Chk1 (Homo sapiens) (UniProt O14757); assay: Percentage CHK1 activity remaining in the presence of 25uM inhibitor
T3 sequence (whole entry): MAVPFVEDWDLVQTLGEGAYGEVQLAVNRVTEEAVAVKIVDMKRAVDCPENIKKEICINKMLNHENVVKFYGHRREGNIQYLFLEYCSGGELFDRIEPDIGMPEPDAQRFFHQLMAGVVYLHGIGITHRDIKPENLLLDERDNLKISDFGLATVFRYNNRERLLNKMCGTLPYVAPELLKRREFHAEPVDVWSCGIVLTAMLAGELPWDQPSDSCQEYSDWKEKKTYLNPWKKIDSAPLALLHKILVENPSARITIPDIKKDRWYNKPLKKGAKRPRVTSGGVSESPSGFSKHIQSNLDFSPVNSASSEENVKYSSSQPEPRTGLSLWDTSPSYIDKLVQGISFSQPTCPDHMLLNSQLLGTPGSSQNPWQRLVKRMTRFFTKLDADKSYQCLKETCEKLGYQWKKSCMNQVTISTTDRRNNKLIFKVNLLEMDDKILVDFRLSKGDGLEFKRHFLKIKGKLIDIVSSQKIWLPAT

[9] = target: T4, Protein kinase C zeta type (Homo sapiens) (UniProt Q05513); assay: Percentage PKCzeta activity remaining in the presence of 25uM inhibitor
T4 sequence (whole entry): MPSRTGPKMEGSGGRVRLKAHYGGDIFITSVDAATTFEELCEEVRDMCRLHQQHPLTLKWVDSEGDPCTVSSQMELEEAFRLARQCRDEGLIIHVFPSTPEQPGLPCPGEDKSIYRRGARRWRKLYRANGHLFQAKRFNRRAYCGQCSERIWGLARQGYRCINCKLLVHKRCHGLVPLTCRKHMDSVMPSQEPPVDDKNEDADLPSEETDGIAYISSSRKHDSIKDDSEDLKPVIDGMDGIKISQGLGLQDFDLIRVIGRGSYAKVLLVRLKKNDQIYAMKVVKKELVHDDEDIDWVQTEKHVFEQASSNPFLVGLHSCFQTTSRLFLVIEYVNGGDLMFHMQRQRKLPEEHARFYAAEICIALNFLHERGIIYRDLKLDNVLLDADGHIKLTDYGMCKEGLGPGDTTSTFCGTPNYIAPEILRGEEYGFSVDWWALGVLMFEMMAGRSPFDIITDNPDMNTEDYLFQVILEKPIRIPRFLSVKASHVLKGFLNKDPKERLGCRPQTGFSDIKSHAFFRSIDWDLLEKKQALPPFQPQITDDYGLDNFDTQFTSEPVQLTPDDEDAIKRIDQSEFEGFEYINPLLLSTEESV

[10] = target: T1, Myosin light chain kinase, smooth muscle; assay: Percentage SmMLCK activity remaining in the presence of 25uM inhibitor
[11] = target: T5, Serine/threonine-protein kinase 3 (Homo sapiens) (UniProt Q13188); assay: Percentage MST2 activity remaining in the presence of 25uM inhibitor
T5 sequence (whole entry): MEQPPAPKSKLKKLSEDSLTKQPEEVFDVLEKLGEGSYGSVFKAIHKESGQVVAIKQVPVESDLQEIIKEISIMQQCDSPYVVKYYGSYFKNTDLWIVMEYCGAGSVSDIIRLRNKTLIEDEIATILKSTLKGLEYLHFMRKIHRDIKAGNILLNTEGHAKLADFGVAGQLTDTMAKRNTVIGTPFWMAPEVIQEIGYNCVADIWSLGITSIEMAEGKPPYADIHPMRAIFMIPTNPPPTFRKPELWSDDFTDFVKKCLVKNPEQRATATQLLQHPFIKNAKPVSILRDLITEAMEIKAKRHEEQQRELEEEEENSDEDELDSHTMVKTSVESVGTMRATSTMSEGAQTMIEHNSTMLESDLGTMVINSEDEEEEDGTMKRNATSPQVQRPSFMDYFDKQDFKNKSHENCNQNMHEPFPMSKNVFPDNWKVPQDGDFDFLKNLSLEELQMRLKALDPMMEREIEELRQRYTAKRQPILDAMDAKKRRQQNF

[12] = target: Casein kinase I isoform delta (Homo sapiens, UniProt P48730); assay: Percentage CK1delta activity remaining in the presence of 25uM inhibitor; conditions: filed as antagonist
[13] = target: Serine/threonine-protein kinase PLK1 (Homo sapiens, UniProt P53350); assay: Percentage PLK1 activity remaining in the presence of 25uM inhibitor
Serine/threonine-protein kinase PLK1, sequence (P53350 whole entry): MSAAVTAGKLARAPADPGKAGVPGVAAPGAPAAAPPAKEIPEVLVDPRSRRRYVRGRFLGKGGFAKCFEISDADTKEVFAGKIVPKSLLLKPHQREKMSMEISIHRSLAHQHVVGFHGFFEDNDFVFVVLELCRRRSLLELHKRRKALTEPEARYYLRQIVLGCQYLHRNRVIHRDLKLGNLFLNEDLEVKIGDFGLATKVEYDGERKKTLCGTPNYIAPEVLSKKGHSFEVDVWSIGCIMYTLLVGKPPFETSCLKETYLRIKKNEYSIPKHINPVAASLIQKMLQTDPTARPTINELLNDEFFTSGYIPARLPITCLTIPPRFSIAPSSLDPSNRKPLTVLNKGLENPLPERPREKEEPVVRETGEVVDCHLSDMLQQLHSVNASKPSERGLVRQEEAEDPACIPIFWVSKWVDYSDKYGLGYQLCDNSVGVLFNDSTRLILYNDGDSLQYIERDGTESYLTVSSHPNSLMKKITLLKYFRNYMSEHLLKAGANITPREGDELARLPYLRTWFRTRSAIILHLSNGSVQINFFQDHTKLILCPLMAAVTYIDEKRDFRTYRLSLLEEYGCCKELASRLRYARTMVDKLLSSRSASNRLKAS

[14] = target: MAP kinase-activated protein kinase 2 (Homo sapiens) (UniProt P49137); assay: Percentage MAPKAPK2 activity remaining in the presence of […]uM inhibitor; conditions: at 25 µM
MAP kinase-activated protein kinase 2 (Homo sapiens), sequence (P49137 whole entry, looked up): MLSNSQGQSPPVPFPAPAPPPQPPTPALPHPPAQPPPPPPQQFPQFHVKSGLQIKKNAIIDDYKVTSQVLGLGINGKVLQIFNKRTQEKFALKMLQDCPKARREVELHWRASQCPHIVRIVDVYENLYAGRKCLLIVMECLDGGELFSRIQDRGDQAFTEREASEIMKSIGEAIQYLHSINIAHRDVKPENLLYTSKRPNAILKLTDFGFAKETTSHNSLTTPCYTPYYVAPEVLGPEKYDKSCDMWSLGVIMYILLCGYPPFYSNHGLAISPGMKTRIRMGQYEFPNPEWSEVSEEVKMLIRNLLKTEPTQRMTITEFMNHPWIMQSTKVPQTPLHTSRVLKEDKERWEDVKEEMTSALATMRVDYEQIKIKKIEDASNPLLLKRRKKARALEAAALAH

[15] = target: Mitogen-activated protein kinase 14 (Homo sapiens, UniProt Q16539); assay: Percentage p38alpha activity remaining in the presence of 25uM inhibitor

T1 sequence (Q15746 whole entry): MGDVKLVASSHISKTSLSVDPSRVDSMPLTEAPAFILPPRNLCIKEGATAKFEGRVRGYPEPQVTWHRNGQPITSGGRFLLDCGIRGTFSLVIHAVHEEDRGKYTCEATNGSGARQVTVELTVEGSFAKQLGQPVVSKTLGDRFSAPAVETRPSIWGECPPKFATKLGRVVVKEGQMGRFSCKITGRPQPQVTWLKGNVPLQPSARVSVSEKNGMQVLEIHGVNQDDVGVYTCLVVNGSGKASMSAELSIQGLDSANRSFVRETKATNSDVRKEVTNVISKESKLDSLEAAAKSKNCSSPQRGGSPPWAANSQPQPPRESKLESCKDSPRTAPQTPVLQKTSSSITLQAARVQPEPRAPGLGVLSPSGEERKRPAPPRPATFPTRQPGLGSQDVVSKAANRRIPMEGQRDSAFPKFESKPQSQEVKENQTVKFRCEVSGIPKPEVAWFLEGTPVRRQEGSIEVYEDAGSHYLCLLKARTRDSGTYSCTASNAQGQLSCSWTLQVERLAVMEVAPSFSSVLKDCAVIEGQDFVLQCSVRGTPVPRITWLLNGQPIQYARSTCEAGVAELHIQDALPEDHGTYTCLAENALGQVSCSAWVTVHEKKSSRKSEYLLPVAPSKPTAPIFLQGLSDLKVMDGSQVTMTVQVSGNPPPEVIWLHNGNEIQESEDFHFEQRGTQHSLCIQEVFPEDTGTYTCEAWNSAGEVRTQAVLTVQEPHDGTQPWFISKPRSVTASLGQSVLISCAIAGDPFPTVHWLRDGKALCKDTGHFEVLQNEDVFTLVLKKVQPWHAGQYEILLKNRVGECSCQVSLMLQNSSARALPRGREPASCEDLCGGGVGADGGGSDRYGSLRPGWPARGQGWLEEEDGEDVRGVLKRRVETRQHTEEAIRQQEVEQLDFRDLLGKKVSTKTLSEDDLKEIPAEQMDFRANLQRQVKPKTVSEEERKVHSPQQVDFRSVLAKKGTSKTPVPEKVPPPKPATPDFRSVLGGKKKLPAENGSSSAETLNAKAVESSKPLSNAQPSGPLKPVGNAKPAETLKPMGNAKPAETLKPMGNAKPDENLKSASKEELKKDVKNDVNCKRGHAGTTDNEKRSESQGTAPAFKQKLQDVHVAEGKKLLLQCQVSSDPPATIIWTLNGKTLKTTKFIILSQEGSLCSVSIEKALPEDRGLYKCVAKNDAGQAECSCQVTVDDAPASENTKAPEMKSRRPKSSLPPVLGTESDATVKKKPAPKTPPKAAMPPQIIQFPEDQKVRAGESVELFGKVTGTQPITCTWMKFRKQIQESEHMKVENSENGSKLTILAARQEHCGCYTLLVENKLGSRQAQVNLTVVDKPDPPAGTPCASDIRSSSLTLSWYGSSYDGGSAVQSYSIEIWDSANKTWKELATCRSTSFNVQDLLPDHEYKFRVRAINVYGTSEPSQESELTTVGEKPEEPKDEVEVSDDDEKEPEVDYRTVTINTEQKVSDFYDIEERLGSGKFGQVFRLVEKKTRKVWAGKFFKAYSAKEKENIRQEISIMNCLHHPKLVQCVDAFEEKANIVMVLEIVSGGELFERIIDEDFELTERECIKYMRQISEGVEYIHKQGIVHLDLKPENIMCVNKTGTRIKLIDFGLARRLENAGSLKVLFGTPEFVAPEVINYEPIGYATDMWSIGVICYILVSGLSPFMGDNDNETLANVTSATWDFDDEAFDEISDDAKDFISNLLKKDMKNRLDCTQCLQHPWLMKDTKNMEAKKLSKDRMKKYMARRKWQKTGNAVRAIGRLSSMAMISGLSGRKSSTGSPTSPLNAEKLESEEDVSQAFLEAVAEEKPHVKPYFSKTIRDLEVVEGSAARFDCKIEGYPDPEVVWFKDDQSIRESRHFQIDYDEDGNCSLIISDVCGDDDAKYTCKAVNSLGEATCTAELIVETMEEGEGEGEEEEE

Activity (Rattus norvegicus; filed as antagonist)	Activity ([5]; filed as antagonist)	Activity [6]	SMILES	Activity [1]	Activity (Rattus norvegicus)	Activity [2]	Activity [3]	Activity [4]	Activity [5]	Activity ([6]; filed as antagonist)	Activity [7]	Activity [8]	Activity [9]	Activity [10]	Activity [11]	Activity [12]	Activity [13]	Activity [14]	Activity [15]
–	–	–	O=C(NCCCNc1nc(Nc2cccc(NC(=O)N3CCCC3)c2)ncc1I)c1cccs1	110%	–	–	–	–	–	–	–	–	–	–	–	–	–	–	–
–	–	–	COc1cc(OC)c(/C=C2/C(=O)Nc3ccccc32)c(OC)c1	–	71%	55%	67%	91%	87%	49%	97%	99%	80%	70%	70%	9%	95%	88%	92%
–	–	–	CN[C@@H]1C[C@H]2O[C@@](C)([C@@H]1OC)n1c3ccccc3c3c4c(c5c6ccccc6n2c5c31)C(=O)N[C@H]4O (stereo in doubt)	83%	–	–	–	–	–	–	–	–	–	–	–	–	–	–	–
29%	48%	83%	NCCNS(=O)(=O)c1ccc(Cl)c2ccncc12	–	–	82%	86%	80%	–	–	76%	86%	52%	84%	91%	12%	81%	85%	103%
